PMC2774616, “Cellular Assays for High-Throughput Screening for Modulators of Trk Receptor Tyrosine Kinases” (Current Chemical Genomics, 2008)
“And” between values parts separate entries of the source, which are not always exact repeats. Equal values may be shown once. Read-outs that look alike come from different tables or passages of the source.

What was measured:
[1] = tested on: NFAT-bla reporter, Trk-NFAT-bla CHO-K1 cells; assay: Thapsigargin stimulation of Trk-NFAT-bla CHO-K1 cell lines; assay type: cell-based; settings: used for stimulation in inhibitor assay
Protocol: Cells in a sub-confluency state (or cryopreserved cells) were resuspended in Assay Medium (DMEM with GlutaMAX™ (Invitrogen, catalog number 10569) supplemented with 0.1% dialyzed FBS, 0.1 mM NEAA, 25 mM HEPES, 100 U/mL Penicillin and 100 µg/mL Streptomycin) and plated in a 384-well assay plate (Corning, Lowell, MA, catalog number 3712) at 10,000 cells (32 μL) per well. 32 μL of Assay Medium without cells were plated in Cell-free Control wells on the same plate. 4 µL 1% DMSO was added to each well to reach final DMSO concentration of 0.1% to mimic the screening situation where compounds dissolved in DMSO are added to test wells. […] Fluorescence intensity at excitation 406 nm and emission 460 nm and 530 nm were obtained using Tecan Safire^2 fluorescence plate reader (Tecan, Durham, NC) (Table 1). After subtracting the average fluorescence intensity from the Cell-free Control wells, the 460nm/530nm emission ratio was calculated. Response Ratio is a measurement of the assay window and is calculated as the 460nm/530nm Emission Ratio of the stimulated wells divided by the 460nm/530nm Emission Ratio of the unstimulated wells. Response Ratios were plotted against test ligand concentrations in log scale and then analyzed using Prism software (GraphPad Software, Inc. San Diego, CA). […]

[2] = tested on: Thapsigargin-induced NFAT reporter activity, TrkA-NFAT-bla CHO-K1 cells; assay: Inhibition of Thapsigargin-induced NFAT reporter activity in TrkA-NFAT-bla CHO-K1 cells; assay type: cell-based; settings: for IC50: TrkA cells, Thapsigargin 8 nM, 5 h, * values may not be accurate, curves did not reach saturation, read-out: IC50, TrkA, Thaps
Protocol: (§1) Cells in a sub-confluency state (or cryopreserved cells) were resuspended in Assay Medium (DMEM with GlutaMAX™ (Invitrogen, catalog number 10569) supplemented with 0.1% dialyzed FBS, 0.1 mM NEAA, 25 mM HEPES, 100 U/mL Penicillin and 100 µg/mL Streptomycin) and plated in a 384-well assay plate (Corning, Lowell, MA, catalog number 3712) at 10,000 cells (32 μL) per well. 32 μL of Assay Medium without cells were plated in Cell-free Control wells on the same plate. 4 µL 1% DMSO was added to each well to reach final DMSO concentration of 0.1% to mimic the screening situation where compounds dissolved in DMSO are added to test wells. Cells were then stimulated with 4 µL/well 10 x ligands (NGF, BDNF, NT-4 (Invitrogen, catalog number PHC7024), NT-3 or Thapsigargin (Sigma, St. Louis, MO)) over the indicated concentration range (1 pM ~ 50000 pM) for 5 hours before adding 8 µL/well 6X LiveBLAzer™-FRET B/G Substrate mixture (Invitrogen, catalog number K1096) for 2 hours. Fluorescence intensity at excitation 406 nm and emission 460 nm and 530 nm were obtained using Tecan Safire^2 fluorescence plate reader (Tecan, Durham, NC) (Table 1). After subtracting the average fluorescence intensity from the Cell-free Control wells, the 460nm/530nm emission ratio was calculated. Response Ratio is a measurement of the assay window and is calculated as the 460nm/530nm Emission Ratio of the stimulated wells divided by the 460nm/530nm Emission Ratio of the unstimulated wells. Response Ratios were plotted against test ligand concentrations in log scale and then analyzed using Prism software (GraphPad Software, Inc. San Diego, CA). Sigmoidal dose-response equation with varying slope was used to fit the data and generate EC50 values. Z’-factor values were calculated as: Z’-factor = 1 - [(3 x stdevunstim + 3 x stdevmaxstim) / (avgmaxstim – avgunstim)].
(§2) Cells were then stimulated with 4 µL of neurotrophins at 10 x EC80 concentrations (EC80 concentrations are: NGF, 0.77 nM; BDNF, 1 nM; NT-3, 0.72 nM; Thapsigargin, 8 nM) for 5 hours before beta-lactamase assay was performed as described above.

human TrkB [3] = target: T1, human TrkB (Homo sapiens, UniProt Q16620); assay: Inhibition of BDNF-induced beta-lactamase activity in TrkB-NFAT-bla CHO-K1 cells; assay type: cell-based
T1 construct: Full length human TRKA, TRKB and TRKC cDNAs were synthesized by Blue Heron Biotechnology; expressed in transfected cells

human TrkC [4] = target: T2, human TrkC (Homo sapiens, UniProt Q16288); assay: Inhibition of NT-3-induced beta-lactamase activity in TrkC-NFAT-bla CHO-K1 cells; assay type: cell-based
T2 construct: Full length human TRKA, TRKB and TRKC cDNAs were synthesized by Blue Heron Biotechnology; expressed in transfected cells
Protocol: as §1

[5] = tested on: Thapsigargin-induced NFAT reporter activity, TrkC-NFAT-bla CHO-K1 cells; assay: Inhibition of Thapsigargin-induced NFAT reporter activity in TrkC-NFAT-bla CHO-K1 cells; assay type: cell-based; settings: for IC50: TrkC cells, Thapsigargin 8 nM, 5 h, * values may not be accurate, curves did not reach saturation, read-out: IC50, TrkC, Thaps
Protocol: as §1, §2

[6] = tested on: Thapsigargin-induced NFAT reporter activity, TrkB-NFAT-bla CHO-K1 cells; assay: Inhibition of Thapsigargin-induced NFAT reporter activity in TrkB-NFAT-bla CHO-K1 cells; assay type: cell-based; settings: for IC50: TrkB cells, Thapsigargin 8 nM, 5 h, * values may not be accurate, curves did not reach saturation, read-out: IC50, TrkB, Thaps
Protocol: as §1, §2

[7] = tested on: thapsigargin-induced NFAT-bla reporter activity; assay: Effect of RNAi oligos on thapsigargin-induced NFAT-bla reporter activity in TrkA-, TrkB- and TrkC-NFAT-bla CHO-K1 cells; assay type: cell-based; settings: all three cell lines, 50 nM RNAi oligo, Thapsigargin 30 nM 5 h
Protocol: Cells were plated in 96-well assay plates (Corning, catalog number 3603) at 6,000 cells/well in 100 µL growth medium (DMEM containing 10% dialyzed FBS, 0.1 mM NEAA and 25 mM HEPES), and incubated in 37°C, 5% CO2 incubator overnight. Next morning, Stealth™ RNAi (Invitrogen, catalog number 10620318) and Lipofectamine^TM RNAiMAX (Invitrogen, catalog number 13778) complexes were prepared according to the manufacturer’s protocol and added to the wells (50 nM RNAi oligos and 1µL RNAiMAX/well). RNAi oligo targeting for beta-lactamase was used as the positive control and a random-sequenced oligo with 48% GC content (Med GC) as the negative control. A set of 2 oligos for each Trk was used:
Cells were incubated with RNAi oligos at 37°C for 32 hours, followed by a medium change. Cells were incubated in Assay Medium at 37 °C for 16 hours and then stimulated with respective ligands (NGF, 0.77 nM; BDNF, 1 nM; NT-3, 0.72 nM and Thapsigargin, 30 nM) for 5 hours before beta-lactamase assay was performed as described above.

TrkA = tested on: TrkA; set-up: method as in PMID 7683492; settings: cited from earlier work
human TrkA [8] = target: T3, human TrkA (Homo sapiens, UniProt P04629); assay: Inhibition of NGF-induced beta-lactamase activity in TrkA-NFAT-bla CHO-K1 cells; assay type: cell-based
T3 construct: Full length human TRKA, TRKB and TRKC cDNAs were synthesized by Blue Heron Biotechnology; expressed in transfected cells

human TrkC [9] = target: T2, human TrkC; assay: Neurotrophin dose response, beta-lactamase reporter assay in TrkC-NFAT-bla CHO-K1 cells; assay type: cell-based
From the text: (§3) NFAT beta-lactamase reporter line NFAT-bla CHO-K1 cells (Invitrogen, Carlsbad, CA, catalog number K1078) were transfected using Lipofectamine™ LTX transfection reagent (Invitrogen, Carlsbad, CA) with pcDNA6-TRKA, pcDNA6-TRKB and pcDNA6-TRKC and selected for blasticidin-resistance. Blasticidin-resistant TrkA transfected cells were stimulated with NGF (Invitrogen, catalog number 13257-019), TrkB transfected cells with BDNF (Invitrogen, catalog number PHC7074) and TrkC transfected cells with NT-3 (Invitrogen, catalog number PHC7034) for 5 hours before neurotrophin stimulated beta-lactamase expressing cells were collected by FACS as single cells onto 96-well plates. The survived clones that responded to the respective ligand were selected and expanded. The clone with the best response to each ligand was further tested in a 384-well format for the dose response of neurotrophins and inhibitors and in a 96-well format for RNAi knock-down.
as §1

human TrkB [10] = target: T1, human TrkB; assay: Neurotrophin dose response, beta-lactamase reporter assay in TrkB-NFAT-bla CHO-K1 cells; assay type: cell-based
From the text: as §3, §1

human TrkA [11] = target: T3, human TrkA; assay: Neurotrophin dose response, beta-lactamase reporter assay in TrkA-NFAT-bla CHO-K1 cells; assay type: cell-based
From the text: as §3, §1

[12] = at the highest concentration tested
[13] = 30 min pretreatment, BDNF at EC80 1 nM, 5 h, read-out: IC50, TrkB, BDNF
[14] = 30 min pretreatment, NT-3 at EC80 0.72 nM, 5 h, read-out: IC50, TrkC, NT-3
[15] = 460nm/530nm ratio stimulated vs unstimulated
[16] = 5 h stimulation, 0.1% DMSO, * values may not be accurate, curves did not reach saturation

T3 sequence (P04629 33-796): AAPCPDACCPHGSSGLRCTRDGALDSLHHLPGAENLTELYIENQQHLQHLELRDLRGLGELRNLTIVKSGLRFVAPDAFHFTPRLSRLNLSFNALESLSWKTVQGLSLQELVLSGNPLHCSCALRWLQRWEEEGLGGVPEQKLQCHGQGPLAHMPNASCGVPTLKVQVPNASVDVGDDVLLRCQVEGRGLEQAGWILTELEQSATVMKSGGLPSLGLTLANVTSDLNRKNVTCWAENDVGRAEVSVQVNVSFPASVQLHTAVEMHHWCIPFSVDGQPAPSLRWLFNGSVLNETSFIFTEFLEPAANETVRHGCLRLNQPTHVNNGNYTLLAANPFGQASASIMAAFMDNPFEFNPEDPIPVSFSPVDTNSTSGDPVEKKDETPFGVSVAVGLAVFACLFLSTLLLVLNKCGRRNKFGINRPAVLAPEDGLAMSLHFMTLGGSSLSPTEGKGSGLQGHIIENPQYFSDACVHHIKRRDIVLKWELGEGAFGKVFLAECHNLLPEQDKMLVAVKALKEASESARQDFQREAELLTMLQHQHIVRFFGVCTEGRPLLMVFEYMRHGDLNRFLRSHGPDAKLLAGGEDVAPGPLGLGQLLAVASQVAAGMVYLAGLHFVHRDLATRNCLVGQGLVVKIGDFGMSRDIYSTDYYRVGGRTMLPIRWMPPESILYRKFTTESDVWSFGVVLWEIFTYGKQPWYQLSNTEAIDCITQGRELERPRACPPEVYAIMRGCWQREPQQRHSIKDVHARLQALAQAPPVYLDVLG
T2 sequence (Q16288 32-825 isoform Q16288-3 limits assumed): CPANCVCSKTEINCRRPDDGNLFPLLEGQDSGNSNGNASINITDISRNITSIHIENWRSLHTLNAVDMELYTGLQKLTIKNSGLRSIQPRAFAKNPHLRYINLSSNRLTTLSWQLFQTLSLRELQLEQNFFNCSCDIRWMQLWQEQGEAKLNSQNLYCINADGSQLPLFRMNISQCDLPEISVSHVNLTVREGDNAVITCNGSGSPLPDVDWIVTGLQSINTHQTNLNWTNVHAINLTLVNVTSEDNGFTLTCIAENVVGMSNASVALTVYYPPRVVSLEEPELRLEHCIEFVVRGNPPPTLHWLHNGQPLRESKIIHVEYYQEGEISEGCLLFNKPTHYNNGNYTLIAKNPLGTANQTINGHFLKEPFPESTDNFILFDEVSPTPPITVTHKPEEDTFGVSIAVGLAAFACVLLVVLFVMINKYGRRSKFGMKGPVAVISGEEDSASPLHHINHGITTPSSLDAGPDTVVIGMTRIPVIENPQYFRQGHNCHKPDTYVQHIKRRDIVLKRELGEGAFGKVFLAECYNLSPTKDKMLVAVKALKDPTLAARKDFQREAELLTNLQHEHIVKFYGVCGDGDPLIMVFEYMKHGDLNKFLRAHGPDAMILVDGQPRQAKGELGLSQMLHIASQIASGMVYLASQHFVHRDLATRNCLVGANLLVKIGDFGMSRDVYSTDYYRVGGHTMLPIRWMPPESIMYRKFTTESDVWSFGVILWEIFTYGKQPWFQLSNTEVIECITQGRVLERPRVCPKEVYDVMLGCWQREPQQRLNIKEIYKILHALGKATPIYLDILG
T1 sequence (Q16620 32-838 isoform Q16620-4 limits assumed): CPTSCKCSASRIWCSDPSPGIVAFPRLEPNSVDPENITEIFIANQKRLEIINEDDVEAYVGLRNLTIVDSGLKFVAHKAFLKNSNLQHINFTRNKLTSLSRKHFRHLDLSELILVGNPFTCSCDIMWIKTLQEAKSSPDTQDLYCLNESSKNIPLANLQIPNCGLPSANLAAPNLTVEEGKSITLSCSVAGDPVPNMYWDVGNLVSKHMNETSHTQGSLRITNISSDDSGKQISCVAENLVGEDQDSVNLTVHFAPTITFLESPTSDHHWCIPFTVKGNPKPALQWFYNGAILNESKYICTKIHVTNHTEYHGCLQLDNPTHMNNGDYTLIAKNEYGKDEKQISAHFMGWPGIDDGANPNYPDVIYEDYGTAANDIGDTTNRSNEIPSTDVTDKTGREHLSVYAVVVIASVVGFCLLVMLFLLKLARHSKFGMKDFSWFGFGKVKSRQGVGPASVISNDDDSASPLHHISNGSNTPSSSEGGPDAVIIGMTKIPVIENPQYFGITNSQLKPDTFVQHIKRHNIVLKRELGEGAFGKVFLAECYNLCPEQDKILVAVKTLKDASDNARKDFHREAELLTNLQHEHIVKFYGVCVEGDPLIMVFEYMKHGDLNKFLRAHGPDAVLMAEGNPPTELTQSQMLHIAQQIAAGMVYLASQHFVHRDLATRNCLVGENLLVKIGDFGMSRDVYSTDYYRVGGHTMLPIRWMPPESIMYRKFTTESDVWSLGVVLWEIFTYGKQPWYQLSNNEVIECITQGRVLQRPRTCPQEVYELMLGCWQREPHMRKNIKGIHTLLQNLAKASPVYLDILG

## C/C=C(/C)C(=O)O[C@H]1C(C)=C2[C@H]([C@@H]1OC(=O)CCCCCCC)[C@@](C)(OC(C)=O)C[C@H](OC(=O)CCC)[C@@]1(O)[C@H]2OC(=O)[C@@]1(C)O [Thapsigargin]
[1]
  EC80 concentration, Thapsigargin: 8 nM

## COC(=O)[C@@]1(O)C[C@H]2O[C@]1(C)n1c3ccccc3c3c4c(c5c6ccccc6n2c5c31)C(=O)NC4 [K252a]
[2]
  IC50: 570 nM
[2]; [12]
  effect on Thapsigargin induced reporter activity, TrkA cells (in words): partial inhibitory effect
Human TrkB [3]
  IC50 in words, BDNF-induced beta-lactamase activity in TrkB cells: low nano-molar
Human TrkB [3]; [13]
  IC50: 11 nM
Human TrkC [4]
  IC50 in words, NT-3-induced beta-lactamase activity in TrkC cells: low nano-molar
Human TrkC [4]; [14]
  IC50: 30 nM
[5]
  IC50: 500 nM
[5]; [12]
  effect on Thapsigargin induced reporter activity, TrkC cells (in words): partial inhibitory effect
[6]
  IC50: > 1000 nM
[6]; [12]
  effect on Thapsigargin induced reporter activity, TrkB cells (in words): partial inhibitory effect

## TRKC2: Stealth RNAi oligo for TrkC, CCAGACCAAUCUGAACUGGACCAAU (Stealth RNAi oligo, modification pattern not given here)
[7]
  effect on thapsigargin-induced NFAT-bla reporter activity (in words): did not inhibit

## CC(C)(C)c1cc(/C=C(\C#N)C(N)=S)cc(C(C)(C)C)c1O [AG879]
TrkA
  concentrations inhibiting NGF induced TrkA autophosphorylation and PLC-γ phosphorylation: micro-molar concentrations
[2]
  IC50: 112 nM
Human TrkA [8]; 30 min pretreatment, NGF at EC80 0.77 nM, 5 h, read-out: IC50, TrkA, NGF
  IC50: 1330 nM
Human TrkA [8]; NGF-induced, read-out: IC50, TrkA-mediated NFAT-bla reporter activity
  IC50: ~1000 nM
Human TrkB [3]; [13]
  IC50: 1010 nM
Human TrkB [3]; BDNF-induced, read-out: IC50, TrkB-mediated NFAT-bla reporter activity
  IC50: ~1000 nM
Human TrkC [4]; [14]
  IC50: 1310 nM
Human TrkC [4]; NT-3-induced, read-out: IC50, TrkC-mediated NFAT-bla reporter activity
  IC50: ~1000 nM
[5]
  IC50: 231 nM
[6]
  IC50: 51 nM

## NT-3: neurotrophin 3, preferred ligand of TrkC
Human TrkC [9]; [15]
  maximum response ratio, TrkC-NFAT-bla CHO-K1: 8.5
Human TrkC [9]; [16]
  EC50: 0.093 nM and 0.09 nM
Human TrkC [9]; used for stimulation in inhibitor assay
  EC80 concentration, TrkC cells: 0.72 nM
Human TrkB [10]; [15]
  maximum response ratio, TrkB-NFAT-bla CHO-K1: 13
Human TrkB [10]; 5 h stimulation, 0.1% DMSO
  EC50: 2.5 nM
Human TrkA [11]; [15]
  maximum response ratio / response over baseline, TrkA-NFAT-bla CHO-K1: 3 fold
Human TrkA [11]; [16]
  EC50: ~16 nM and 16 nM
